# According to patent US10435399B2, “HDAC6 inhibitory heterocyclic compound” (TAKEDA PHARMACEUTICAL COMPANY LIMITED, priority 2017, dated 2019):
# Molecular target: T1, HDAC6 enzyme (Homo sapiens, UniProt Q9UBN7)
# T1 construct: transducing full length HDAC6 gene into Sf-9 insect cells; GST; purchased SignalChem; host or cells: Sf-9 insect cells
# T1 sequence (Q9UBN7 1-1215): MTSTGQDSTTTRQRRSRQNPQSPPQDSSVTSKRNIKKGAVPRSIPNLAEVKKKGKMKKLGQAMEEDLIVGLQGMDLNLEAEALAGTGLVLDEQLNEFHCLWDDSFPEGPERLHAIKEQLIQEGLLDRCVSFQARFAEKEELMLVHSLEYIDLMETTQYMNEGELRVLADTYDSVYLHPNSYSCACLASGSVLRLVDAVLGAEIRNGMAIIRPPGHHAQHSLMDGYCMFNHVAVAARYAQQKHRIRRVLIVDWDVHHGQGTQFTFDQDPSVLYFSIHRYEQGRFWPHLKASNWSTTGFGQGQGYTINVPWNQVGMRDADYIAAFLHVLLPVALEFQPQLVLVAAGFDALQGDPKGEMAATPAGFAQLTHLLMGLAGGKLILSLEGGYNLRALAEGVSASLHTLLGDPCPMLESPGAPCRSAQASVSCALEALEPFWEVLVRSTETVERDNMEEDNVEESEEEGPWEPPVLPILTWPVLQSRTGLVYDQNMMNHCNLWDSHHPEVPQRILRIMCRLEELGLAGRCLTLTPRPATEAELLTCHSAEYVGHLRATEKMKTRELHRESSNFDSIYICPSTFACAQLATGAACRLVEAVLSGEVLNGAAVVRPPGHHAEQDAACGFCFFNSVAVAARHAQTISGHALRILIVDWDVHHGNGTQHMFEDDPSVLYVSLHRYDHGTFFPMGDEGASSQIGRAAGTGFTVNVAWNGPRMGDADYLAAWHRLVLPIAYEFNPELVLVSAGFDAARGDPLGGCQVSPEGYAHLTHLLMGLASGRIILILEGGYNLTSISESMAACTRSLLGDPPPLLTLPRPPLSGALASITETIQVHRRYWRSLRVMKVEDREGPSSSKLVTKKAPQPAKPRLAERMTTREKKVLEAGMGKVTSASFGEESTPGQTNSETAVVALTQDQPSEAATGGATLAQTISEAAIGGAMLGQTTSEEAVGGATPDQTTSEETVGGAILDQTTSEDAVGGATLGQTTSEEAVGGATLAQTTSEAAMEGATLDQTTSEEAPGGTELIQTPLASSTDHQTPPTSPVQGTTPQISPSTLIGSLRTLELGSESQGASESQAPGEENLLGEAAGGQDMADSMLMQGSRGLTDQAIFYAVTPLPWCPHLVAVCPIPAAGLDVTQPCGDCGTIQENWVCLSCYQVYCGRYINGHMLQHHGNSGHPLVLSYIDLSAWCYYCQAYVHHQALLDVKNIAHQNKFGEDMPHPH
# Test: HDAC6 enzyme inhibitory activity (HDAC-Glo I/II Assay kit)
# Format: biochemical
# Details: 10 μM; wells without enzyme = 100% inhibition; read-out: HDAC6 inhibitory rate (%) (10 μM)
# Procedure, shortened: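 Test compound is preincubated 60 min at RT with full-length insect-cell HDAC6 in Tris-HCl pH 7.5 with 135 mM NaCl and 1 mM MgCl2. A 20 min room-temperature HDAC-Glo reaction follows, with luminescent read-out.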
row,inhibition at 10 µM [%],Structure (SMILES)
1,100,"CC(C)(OC(=O)N[C@@H]1COCC[C@H]1N1Cc2c(F)cc(-c3nnc(C(F)F)o3)cc2C1=O)C(F)(F)F [Example 213, 1,1,1-trifluoro-2-methylpropan-2-yl ((3S,4R)-4-(6-(5-(difluoromethyl)-1,3,4-oxadiazol-2-yl)-4-fluoro-1-oxo-1,3-dihydro-2H-isoindol-2-yl)tetrahydro-2H-pyran-3-yl)carbamate]"
2,100,"CC(C)(F)C(=O)N[C@@H]1CCCC[C@H]1N1Cc2ncc(-c3nnc(C(F)F)o3)cc2C1=O [Example 214, N-((1R,2R)-2-(3-(5-(difluoromethyl)-1,3,4-oxadiazol-2-yl)-5-oxo-5,7-dihydro-6H-pyrrolo[3,4-b]pyridin-6-yl)cyclohexyl)-2-fluoro-2-methylpropanamide]"
3,101,"O=C1c2cc(-c3nnc(C(F)F)o3)cnc2CN1[C@@H]1CCCC[C@H]1NC(=O)C(F)(F)F [Example 215, N-((1R,2R)-2-(3-(5-(difluoromethyl)-1,3,4-oxadiazol-2-yl)-5-oxo-5,7-dihydro-6H-pyrrolo[3,4-b]pyridin-6-yl)cyclohexyl)-2,2,2-trifluoroacetamide]"
4,100,"O=C1c2cc(-c3nnc(C(F)F)o3)cnc2CN1[C@@H]1CCCC[C@H]1NC(=O)C1(F)CC1 [Example 216, N-((1R,2R)-2-(3-(5-(difluoromethyl)-1,3,4-oxadiazol-2-yl)-5-oxo-5,7-dihydro-6H-pyrrolo[3,4-b]pyridin-6-yl)cyclohexyl)-1-fluorocyclopropanecarboxamide]"
5,98,"CC(C)(C(=O)N[C@@H]1CCCC[C@H]1N1Cc2ncc(-c3nnc(C(F)F)o3)cc2C1=O)C(F)(F)F [Example 217, N-((1R,2R)-2-(3-(5-(difluoromethyl)-1,3,4-oxadiazol-2-yl)-5-oxo-5,7-dihydro-6H-pyrrolo[3,4-b]pyridin-6-yl)cyclohexyl)-3,3,3-trifluoro-2,2-dimethylpropanamide]"
6,100,"O=C1c2cc(-c3nnc(C(F)F)o3)cnc2CN1[C@@H]1CCCC[C@H]1NC(=O)C1(F)CCC1 [Example 218, N-((1R,2R)-2-(3-(5-(difluoromethyl)-1,3,4-oxadiazol-2-yl)-5-oxo-5,7-dihydro-6H-pyrrolo[3,4-b]pyridin-6-yl)cyclohexyl)-1-fluorocyclobutanecarboxamide]"
7,100,O=C1c2cc(-c3nnc(C(F)F)o3)cnc2CN1[C@@H]1CCCC[C@H]1NC(=O)C1(C(F)(F)F)CCC1 [Example 219]
8,94,"O=C1c2cc(-c3nnc(C(F)F)o3)ccc2CN1[C@@H]1CCCC[C@H]1O [Example 220, 6-(5-(difluoromethyl)-1,3,4-oxadiazol-yl)-2-((1R,2R)-2-hydroxycyclohexyl)-isoindolin-1-one]"
9,101,"O=C1c2cc(-c3nnc(C(F)F)o3)cnc2CN1[C@@H]1CCCC[C@H]1NC(=O)C1(c2ccc(F)cc2)CC1 [Example 221, N-((1R,2R)-2-(3-(5-(difluoromethyl)-1,3,4-oxadiazol-2-yl)-5-oxo-5,7-dihydro-6H-pyrrolo[3,4-b]pyridin-6-yl)cyclohexyl)-1-(4-fluorophenyl)-cyclopropanecarboxamide]"
10,99,"O=C(N[C@@H]1CCCC[C@H]1N1Cc2ncc(-c3nnc(C(F)F)o3)cc2C1=O)c1ccccc1F [Example 222, N-((1R,2R)-2-(3-(5-(difluoromethyl)-1,3,4-oxadiazol-2-yl)-5-oxo-5,7-dihydro-6H-pyrrolo[3,4-b]pyridin-6-yl)cyclohexyl)-2-fluorobenzamide]"
11,99,"N#Cc1ccccc1C(=O)N[C@@H]1CCCC[C@H]1N1Cc2ncc(-c3nnc(C(F)F)o3)cc2C1=O [Example 223, 2-cyano-N-((1R,2R)-2-(3-(5-(difluoro-methyl)-1,3,4-oxadiazol-2-yl)-5-oxo-5,7-dihydro-6H-pyrrolo[3,4-b]-pyridin-6-yl)cyclohexyl)benzamide]"
12,100,"O=C(N[C@@H]1CCCC[C@H]1N1Cc2ncc(-c3nnc(C(F)F)o3)cc2C1=O)c1cccc(F)c1 [Example 224, N-((1R,2R)-2-(3-(5-(difluoromethyl)-1,3,4-oxadiazol-2-yl)-5-oxo-5,7-dihydro-6H-pyrrolo[3,4-b]pyridin-6-yl)cyclohexyl)-3-fluorobenzamide]"
13,98,"N#Cc1cccc(C(=O)N[C@@H]2CCCC[C@H]2N2Cc3ncc(-c4nnc(C(F)F)o4)cc3C2=O)c1 [Example 225, 3-cyano-N-((1R,2R)-2-(3-(5-(difluoro-methyl)-1,3,4-oxadiazol-2-yl)-5-oxo-5,7-dihydro-6H-pyrrolo[3,4-b]pyridin-6-yl)cyclohexyl)benzamide]"
14,99,"O=C(N[C@@H]1CCCC[C@H]1N1Cc2ncc(-c3nnc(C(F)F)o3)cc2C1=O)c1cccc(C(F)(F)F)c1 [Example 226, N-((1R,2R)-2-(3-(5-(difluoromethyl)-1,3,4-oxadiazol-2-yl)-5-oxo-5,7-dihydro-6H-pyrrolo[3,4-b]pyridin-6-yl)cyclohexyl)-3-(trifluoromethyl)-benzamide]"
15,100,"O=C1c2cc(-c3nnc(C(F)F)o3)cc(F)c2CN1C[C@H]1COCCN1CC(F)(F)C(F)(F)F [Example 227, 6-(5-(difluoromethyl)-1.3,4-oxadiazol-2-yl)-4-fluoro-2-(((3S)-4-(2,2,3,3,3-pentafluoropropyl)morpholin-3-yl)-methyl)isoindolin-1-one]"
16,98,"O=C1c2cc(-c3nnc(C(F)F)o3)cc(F)c2CN1C[C@H]1COCCN1CC(F)(F)C(F)F [Example 228, 6-(5-(difluoromethyl)-1,3,4-oxadiazol-2-yl)-4-fluoro-2-(((3S)-4-(2,2,3,3-tetrafluoropropyl)morpholin-3-yl)-methyl)isoindolin-1-one]"
17,100,"N#Cc1ccccc1-c1ccccc1N1Cc2ccc(-c3nnc(C(F)F)o3)cc2C1=O [Example 230, 2′-(6-(5-(difluoromethyl)-1,3,4-oxadiazol-2-yl)-1-oxo-1,3-dihydro-2H-isoindol-2-yl)-biphenyl-2-carbonitrile]"
18,98,"N[C@@H]1CCCC[C@H]1N1Cc2ncc(-c3nnc(C(F)F)o3)cc2C1=O [Example 231, 6-((1R,2R)-2-aminocyclohexyl)-3-(5-(difluoromethyl)-1,3,4-oxadiazol-2-yl)-6,7-dihydro-5H-pyrrolo[3,4-b]pyridin-5-one]"
19,98,"O=C(O[C@@H]1CCCC[C@H]1N1Cc2ccc(-c3nnc(C(F)F)o3)cc2C1=O)N1CCC1 [Example 232, (1R,2R)-2-(6-(5-(difluoromethyl)-1,3,4-oxadiazol-2-yl)-1-oxo-1,3-dihydro-2H-isoindol-2-yl)-cyclohexyl azetidine-1-carboxylate]"
20,100,"O=C(O[C@@H]1CCCC[C@H]1N1Cc2ccc(-c3nnc(C(F)F)o3)cc2C1=O)N1CCCC1 [Example 233, (1R,2R)-2-(6-(5-(difluoromethyl)-1,3,4-oxadiazol-2-yl)-1-oxo-1,3-dihydro-2H-isoindol-2-yl)-cyclohexyl pyrrolidine-1-carboxylate]"

# Same assay, conditions: read-out: HDAC6 inhibitory rate (%) (10 μM)
row,Structure (SMILES),inhibition at 10 µM [%]
1,"O=C1c2cc(-c3nnc(C(F)F)o3)cc(F)c2CN1C[C@H]1COCCN1CC(F)(F)C(F)(F)C(F)(F)F [Example 229, 6-(5-(difluoromethyl)-1,3,4-oxadiazol-2-yl)-4-fluoro-2-(((3S)-4-(2,2,3,3,4,4,4-heptafluorobutyl)-morpholin-3-yl)methyl)isoindolin-1-one]",100
